Among the data in patent publication US8623879B2, “1-heterocyclyl-1,5-dihydro-pyrazolo[3,4-D] pyrimidin-4-one derivates and their use as PDE9A modulators” (Boehringer Ingelheim International GmbH, priority 2008, dated 2014) are inhibition and IC50 values, retold here.

The IC50 is the point on the concentration scale where inhibition reaches its midpoint.

Each structure is given as a SMILES string. Where two headings read alike, the source gives them in different places.

The assay deals with T1, human PDE9A2 (Homo sapiens, UniProt O76083).
T1 construct: made in house; host or cells: Sf9 insect cells (infected); crude lysate used as enzyme source
The assay can be described thus: PDE9A2 enzymatic activity assay (scintillation proximity assay, SPA). The format is biochemical. The conditions noted are these: for IC50: reported only as range 1-100 or 101-1200 nanomolar, specific value lies within range. On the technique in general: SPA uses beads or plates that emit light when radiolabelled molecules are held near them.

Setting [1] is: read-out: % inhibition of PDE9A2 (at 10 micromolar concentration), 10 micromolar concentration, values above 100% adjusted to 100%.
Where [2] appears, read: read-out: IC50 within range [nanomolar (nM)].

T1 sequence (O76083 1-533 isoform O76083-2): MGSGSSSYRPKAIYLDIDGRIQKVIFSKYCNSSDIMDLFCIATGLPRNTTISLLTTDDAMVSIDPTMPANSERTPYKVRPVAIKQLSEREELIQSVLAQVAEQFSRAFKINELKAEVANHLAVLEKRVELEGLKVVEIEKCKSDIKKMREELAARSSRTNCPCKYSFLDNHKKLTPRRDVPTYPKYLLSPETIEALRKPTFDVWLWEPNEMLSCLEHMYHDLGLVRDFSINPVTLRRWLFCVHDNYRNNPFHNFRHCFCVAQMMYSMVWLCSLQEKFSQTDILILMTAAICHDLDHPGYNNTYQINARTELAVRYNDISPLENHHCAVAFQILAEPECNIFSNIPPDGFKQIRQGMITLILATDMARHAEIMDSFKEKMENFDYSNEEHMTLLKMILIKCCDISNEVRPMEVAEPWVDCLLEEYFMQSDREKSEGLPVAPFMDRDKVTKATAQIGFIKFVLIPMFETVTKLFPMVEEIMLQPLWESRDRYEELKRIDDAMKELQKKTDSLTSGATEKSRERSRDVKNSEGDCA

As for `O=c1[nH]c(Cc2ccccc2Cl)nc2c1cnn2C1CCOCC1` [Example 4], under setting [1], the inhibition at 10 µM worked out at 98%. The IC50 under setting [2] lay in the range of 1 to 100 nM.
For `O=c1[nH]c(Cc2ccccc2Br)nc2c1cnn2C1CCOCC1` [Example 5] the same measures were 99% and 1 to 100 nM.
For `O=c1[nH]c(Cc2c(F)cccc2Cl)nc2c1cnn2C1CCOCC1` [Example 6] the same measures were 98% and 1 to 100 nM.
For `O=c1[nH]c(Cc2cc(F)cc(F)c2)nc2c1cnn2C1CCOCC1` [Example 7] the same measures were 98% and 1 to 100 nM.
For `CCCCc1nc2c(cnn2C2CCOCC2)c(=O)[nH]1` [Example 8], the inhibition at 10 µM under setting [1] was 100%. Further, under setting [2], the IC50 was 1 to 100 nM.
Regarding `O=c1[nH]c(CCC2CCCC2)nc2c1cnn2C1CCOCC1` [Example 9], under setting [1], the inhibition at 10 µM was 99%. In addition, the concentration for half-maximal inhibition (IC50) under setting [2] is 1 to 100 nM.
For `O=c1[nH]c(Cc2ccc(F)cc2Cl)nc2c1cnn2C1CCOCC1` [Example 10] the same measures were 98% and 1 to 100 nM.
Regarding `COc1ccc(Cc2nc3c(cnn3C3CCOCC3)c(=O)[nH]2)cc1` [Example 11], the inhibition at 10 µM under setting [1] came to 98%. Further, the IC50 under setting [2] lay within 1 to 100 nM.
Take `O=c1[nH]c(C(F)(F)c2ccccc2)nc2c1cnn2C1CCOCC1` [Example 13]: the inhibition at 10 µM under setting [1] is 90%. The half-inhibitory concentration (IC50) under setting [2] was 101 to 1200 nM.
For `Cc1nc(Cc2nc3c(cnn3C3CCOCC3)c(=O)[nH]2)c(C)s1` [Example 24] the same measures were 86% and 101 to 1200 nM.
As for `O=c1[nH]c(CCCC(F)(F)F)nc2c1cnn2C1CCOCC1` [Example 25], the inhibition at 10 µM under setting [1] amounted to 96%. Further, the IC50 under setting [2] lay in the range of 1 to 100 nM.
As to `O=c1[nH]c(Cn2cccn2)nc2c1cnn2C1CCOCC1` [Example 26], the inhibition at 10 µM under setting [1] is 91%. For the same molecule, the IC50 under setting [2] was in the range of 101 to 1200 nM.
For `COc1ccc(Cc2nc3c(cnn3C3CCOCC3)c(=O)[nH]2)cc1F` [Example 27] the same measures were 99% and 1 to 100 nM.
On the same counts, the results for `O=c1[nH]c(Cc2ccccc2O)nc2c1cnn2C1CCOCC1` [Example 28] are 98% and 1 to 100 nM.
For `CCCc1nc2c(cnn2C2CCOCC2)c(=O)[nH]1` [Example 29] the same measures were 96% and 1 to 100 nM.
For `COc1cccc(Cl)c1Cc1nc2c(cnn2C2CCOCC2)c(=O)[nH]1` [Example 33], the inhibition at 10 µM under setting [1] was 97%. In addition, the IC50 under setting [2] was 1 to 100 nM.
On the same counts, the results for `O=c1[nH]c(CCC(F)(F)F)nc2c1cnn2C1CCOCC1` [Example 34] are 93% and 101 to 1200 nM.
With `COc1ccc(C#N)c(Cc2nc3c(cnn3C3CCOCC3)c(=O)[nH]2)c1` [Example 35], under setting [1], the inhibition at 10 µM is 100%. For the same molecule, the concentration for half-maximal inhibition (IC50) under setting [2] was 101 to 1200 nM.
For `Cc1cc(C)cc(Cc2nc3c(cnn3C3CCOCC3)c(=O)[nH]2)c1` [Example 36] the same measures were 100% and 1 to 100 nM.
For `O=c1[nH]c(Cc2c(F)ccc(F)c2Cl)nc2c1cnn2C1CCOCC1` [Example 37] the same measures were 97% and 1 to 100 nM.
For `O=c1[nH]c(Cc2cc(Cl)cc(Cl)c2)nc2c1cnn2C1CCOCC1` [Example 38] the same measures were 99% and 1 to 100 nM.
`O=c1[nH]c(Cc2cccc(Cl)c2)nc2c1cnn2C1CCOCC1` [Example 39]: the inhibition at 10 µM under setting [1] came out at 99%. For the same molecule, the concentration for half-maximal inhibition (IC50) under setting [2] lay in the range of 1 to 100 nM.
For `O=c1[nH]c(CCC2CCC2)nc2c1cnn2C1CCOCC1` [Example 40-1] the same measures were 100% and 1 to 100 nM.
On the same counts, the results for `COc1ccc(Cc2nc3c(cnn3C3CCOCC3)c(=O)[nH]2)c(Cl)c1` [Example 40-2] are 100% and 1 to 100 nM.
On the same counts, the results for `COc1ccccc1CCc1nc2c(cnn2C2CCOCC2)c(=O)[nH]1` [Example 40-3] are 100% and 101 to 1200 nM.
On to `O=c1[nH]c(CC2CC2)nc2c1cnn2C1CCSCC1` [Example 40-5], for which, under setting [1], the inhibition at 10 µM is 98%. Under setting [2], the IC50 was in the range of 1 to 100 nM.
On the same counts, the results for `O=c1[nH]c(CC2CCC(F)(F)CC2)nc2c1cnn2C1CCOCC1` [Example 40-6] are 97% and 1 to 100 nM.
On the same counts, the results for `Cc1cccn(-c2ccccc2Cc2nc3c(cnn3C3CCOCC3)c(=O)[nH]2)c1=O` [Example 40-7] are 95% and 101 to 1200 nM.
As for `O=c1[nH]c(Cc2ccccc2)nc2c1cnn2C1CCOCC1` [Example 40], the IC50 (IC50 within range [nanomolar (nM)]) was in the range of 1 to 100 nM. For the setting “read-out: % inhibition of PDE9A2 (at 10 micromolar concentration)”, the inhibition at 10 µM turned out to be 99%.
On to `O=c1[nH]c(CC2CCOCC2)nc2c1cnn2C1CCOCC1` [Example 41], for which, under setting [1], the inhibition at 10 µM was 92%. Besides, the IC50 under setting [2] was 101 to 1200 nM.
Turning to `O=c1[nH]c(CC2CCC2)nc2c1cnn2C1CCOCC1` [Example 43], the inhibition at 10 µM under setting [1] was 98%. Besides, the IC50 under setting [2] was 1 to 100 nM.
Regarding `O=c1[nH]c(Cc2cccc(C(F)(F)F)c2)nc2c1cnn2C1CCOCC1` [Example 44], under setting [1], the inhibition at 10 µM is 99%. Besides, the IC50 under setting [2] is 1 to 100 nM.
For the molecule `O=c1[nH]c(Cc2ccccc2C(F)(F)F)nc2c1cnn2C1CCOCC1` [Example 45], under setting [1], the inhibition at 10 µM is 98%. Further, the IC50 under setting [2] lay within 1 to 100 nM.
On the same counts, the results for `O=c1[nH]c(CC2CC2)nc2c1cnn2C1CCOCC1` [Example 47] are 97% and 1 to 100 nM.
On the same counts, the results for `COc1ccccc1Cc1nc2c(cnn2C2CCOCC2)c(=O)[nH]1` [Example 49] are 98% and 1 to 100 nM.
For `O=c1[nH]c(Cc2cc(OC(F)(F)F)ccc2F)nc2c1cnn2C1CCOCC1` [Example 50], the inhibition at 10 µM under setting [1] is 97%. For the same molecule, under setting [2], the IC50 lay within 1 to 100 nM.
On to `O=c1[nH]c(Cc2ccccn2)nc2c1cnn2C1CCOCC1` [Example 51], for which the inhibition at 10 µM under setting [1] amounted to 96%. Also, the IC50 under setting [2] was in the range of 1 to 100 nM.
For the molecule `CCOc1ccccc1Cc1nc2c(cnn2C2CCOCC2)c(=O)[nH]1` [Example 52], the inhibition at 10 µM under setting [1] amounted to 100%. Under setting [2], the half-inhibitory concentration (IC50) lay in the range of 1 to 100 nM.
On to `N#Cc1ccccc1Cc1nc2c(cnn2C2CCOCC2)c(=O)[nH]1` [Example 53], for which the inhibition at 10 µM under setting [1] was found to be 99%. Besides, the IC50 under setting [2] fell in the range of 1 to 100 nM.
On the same counts, the results for `CC(C)Oc1ccccc1Cc1nc2c(cnn2C2CCOCC2)c(=O)[nH]1` [Example 54] are 97% and 1 to 100 nM.
For `O=c1[nH]c(Cc2ccccc2OCC2CC2)nc2c1cnn2C1CCOCC1` [Example 55] the same measures were 97% and 1 to 100 nM.
As to `Cc1cccnc1Cc1nc2c(cnn2C2CCOCC2)c(=O)[nH]1` [Example 56], under setting [1], the inhibition at 10 µM was found to be 95%. The IC50 under setting [2] is 1 to 100 nM.
As for `O=c1[nH]c(Cc2ccccc2O[C@@H]2CCOC2)nc2c1cnn2C1CCOCC1` [Example 57], under setting [1], the inhibition at 10 µM was found to be 100%. Further, the IC50 under setting [2] is 1 to 100 nM.
As for `O=c1[nH]c(Cc2ccccc2O[C@H]2CCOC2)nc2c1cnn2C1CCOCC1` [Example 58], the inhibition at 10 µM under setting [1] was 96%. The IC50 under setting [2] lay in the range of 1 to 100 nM.
On the same counts, the results for `O=c1[nH]c(Cc2ccccc2OC2CCOCC2)nc2c1cnn2C1CCOCC1` [Example 60] are 97% and 1 to 100 nM.
